In patent EP4488279A1, “SUBSTITUTED HEXAHYDRO-2H-PYRAZINO[1,2-A]PYRAZIN-1(6H)-ONE DERIVATIVES AS ACTIVATORS OF HUMAN CASEINOLYTIC PROTEASE P (HSCLPP)” (Centro Atlantico del Medicamento S.A (Ceamed, S.A), priority 2023, dated 2025):
Read-outs that look alike come from different tables or passages of the source.

Key:
Yeast + HsCIpP = assay: Yeast growth inhibition screen, yeast expressing human ClpP; type: cell-based; conditions: Saccharomyces cerevisiae, 24 h, read-out: Yeast + HsCIpP GI50
Description: This technique allows to directionally assemble several DNA fragments into one single DNA piece. It is based on plasmid libraries that share the same DNA backbone but differ in the type of the insert. The assembly of the final cassette is based on the "Golden Gate Cloning" method. Human CLPP gene sequence (codon-optimized for yeast translation) was amplified with well-designed primers from a plasmid kindly provided by Dr. Michael David Tyers (University of Montreal). Once amplified, a MoClo reaction was performed to obtain the final integrative cassette. This cassette was composed as follows: • Type 1: ConLS 3' connector. • Type 2: TDH3 gene promoter (strong and constitutive expression). • Type 3: Amplified human CLPP gene. • Type 4: ADH1 gene terminator. • Type 5: ConR1 5' connector. • Type 6: LEU2 gene as selectable marker for yeast. • Type 7: 3' HO gene homology sequence for yeast integration. • Type 8a: KanR-ColE1 sequence for bacterial amplification and antibiotic resistance. • Type 8b: 5' HO gene homology sequence for yeast integration.
Digestion patterns with several restriction enzymes were carried out to confirm the success of the MoClo system. An extra restriction enzyme reaction (Notl) was performed to linearize the DNA fragment and deplete the bacterial part.
(§1) These cells contain mutants in YRS1, YRR1, PDR1 and PDR3 genes, which are involved in polydrug and pleiotropic resistance networks.
Yeast cells were transformed with the linearized cassette and transformant colonies were selected on minimum media without leucine. Independent clones were checked by PCR and positive ones were stored at -80 °C until use.
(§2) The yeast (both HsCpIP+ and HsCIpP-) are incubated in petri dishes with YPD (Yeast extract peptone dextrose) at 25 °C overnight, after which a colony is isolated, suspended in a flask with fresh YPD and incubating again under the same conditions but with agitation. […] 100 µl of this solution was then placed into the appropriated wells of a standard 96-well plate. Stock solutions (DMSO, 10 mM) of the compounds to be tested are diluted in YPD to 2X of their final concentrations to be tested, and 100 µl added to the appropriate wells. 100 µl of YPD was added to wells designated as the negative control wells, while ONC206 (0.5 µM) was used as the positive control. Once all compounds were added to the plate, an initial T = 0 absorbance value was recorded at 600 Nm. The plate was then incubated at 25 °C with gentle shaking for 24 h. The plates can either be read at multiple time points using a TECAN Spark® Multimode Microplate Reader, or at the end of the experiment using a standard spectrophotometer.
(§3) Table 2: Growth inhibition (GI50) values for compounds of the present invention in yeast containing HsCIpP, and yeast without HsCIpP.

Yeast - HsCIpP = assay: Yeast growth inhibition screen, yeast without human ClpP (selectivity control); type: cell-based; conditions: Saccharomyces cerevisiae, read-out: Yeast - HsCIpP GI50
Experimental: as §1, §2, §3

4T1 = assay: MTT cell viability assay, 4T1; type: cell-based; conditions: Mus musculus, read-out: IC50 4T1 48 H
Experimental: This a mouse epithelial breast cancer cell line classified as being triple negative and mimics human breast cancer; stage IV.
Cell viability was assayed by measuring the mitochondrial reduction of the tetrazolium salt 3-(4,5-methyltiazol-2yl)-2,5diphenyl-tetrazolium bromide] (MTT) (Applichen; A2231,0010) [Mosmann T. J Immunol Methods. […] Oncogene. […] Cells were seeded at a density according to their exponential growth phase (normally 1000 to 5000/well). The cells were cultured at 37 °C in the dark in air containing 5% CO2. After 24h either vehicle (0.05% DMSO), or drug, was added to culture medium at the indicated concentrations (10 to 0,01microM). […] The medium was then removed, and the precipitated formazan was solubilized by the addition of DMSO (200 µL).

PANC1 = assay: MTT cell viability assay, PANC1; type: cell-based; conditions: Homo sapiens, PANC-1, PANC1 cells, 72 H, average of at least two independent experiments
Experimental: This a human cancer cell line derived from the pancreas of a person.
(§4) Cell viability was assayed by measuring the mitochondrial reduction of the tetrazolium salt 3-(4,5-methyltiazol-2yl)-2,5diphenyl-tetrazolium bromide] (MTT) (Applichen; A2231,0010) [Mosmann T. J Immunol Methods. […] Oncogene. […] Cells were seeded at a density according to their exponential growth phase (normally 1000 to 5000/well). The cells were cultured at 37 °C in the dark in air containing 5% CO2. After 24h either vehicle (0.05% DMSO), or drug, was added to culture medium at the indicated concentrations (10 to 0,01microM). After another 72 h, MTT (0.3 mg/ml) was added to cells, followed by incubation for 2-4h at 37 °C in the dark. The medium was then removed, and the precipitated formazan was solubilized by the addition of DMSO (200 µL).

MDA-MB-231 = assay: MTT cell viability assay, MDA-MB-231; type: cell-based; conditions: Homo sapiens, MDA-MB-231 cells, 72 H, average of at least two independent experiments
Experimental: This a human breast cancer cell line derived from a metastatic site from a person.
as §4

U2 OS = assay: MTT cell viability assay, U2 OS; type: cell-based; conditions: Homo sapiens, U2OS, U2 OS cells, 72 H, average of at least two independent experiments
Experimental: U2 OS [American Type Culture Collection (ATCC) reference number HTB-96]. This is a human bone cancer (a moderately differentiated sarcoma) cell derived from an osteosarcoma patient.
as §4

DU-145 = assay: MTT cell viability assay, DU-145; type: cell-based; conditions: Homo sapiens, DU-145 cells, 72 H, average of at least two independent experiments
Experimental: This a human prostate cancer cell line derived from a metastatic site (brain) of a person.
as §4

MDA-MB-231 cells = assay: cells; conditions: for Result / TGI50: MDA-MB-231 72 H, SRB; for Result: cytostatic or not; for TGI50: total growth inhibition concentration; for GI50 / CC50: Homo sapiens, MDA-MB-231, 72 h; for CC50: read-out: LC50
Experimental: In order to measure the cell population at the time zero (Tz) a plate of cells was stained with SRB 24 hours after seeding. The cell monolayers are fixed with cold 5% (w/v) trichloroacetic acid for 60 minutes at 4°C. The excess of trichloroacetic acid is removed by washing five times with distilled water. Sulforhodamine B (SRB) solution [50 µL at 0.4%(w/v) in 1% acetic acid] is added to each well and plates are incubated for 8 minutes at room temperature. The excess dye is removed by washing five times with 1% (v/v) acetic acid. The bound stain is subsequently solubilized with (100 µL) 10 mM trizma base and the absorbance is read on automated plate reader at a wavelength of 550 nm.
Compounds at various concentrations were added to an identical cell-seeded (non-treated) plate and incubated at 37°C (5% CO2) for an additional […]. Cells were fixed and stained following the same protocol. The measurement of the cell population after 72 hours in the presence of the drug is (Ti). Several wells in the same plate were treated with the control vehicle.
Using the absorbance measurements, time zero (Tz), control growth (C), and test growth in the present of the compound (Ti) the percentage growth inhibition is calculated as: • [(Ti-Tz)/(C-Tz)] x 100 for concentrations for which Ti >/= Tz • [(Ti-Tz)/Tz] x 100 for concentrations for which Ti <Tz
These values were determined using GraphPad software v5 (San Diego, CA).

[1] = 4T1 cells, 48 H, MTT, average of at least two independent experiments
[2] = yeast without HsCIpP, 24 h at 25 °C, absorbance at 600 nm

SMILES	GI50 (Yeast + HsCIpP)	GI50 (Yeast - HsCIpP; 24 h)	IC50 (4T1; [1])	IC50 (PANC1)	GI50 (Yeast - HsCIpP; [2])	IC50 (MDA-MB-231)	IC50 (U2 OS)	IC50 (DU-145)	IC50 (4T1; 4T1, 48 h)	Result (MDA-MB-231 cells)	TGI50 (MDA-MB-231 cells)	GI50 (MDA-MB-231 cells)	CC50 (MDA-MB-231 cells)
O=C1C2CN(Cc3ccc(C(F)(F)F)cc3)CCN2CCN1Cc1ccc(C(F)(F)F)cc1 (centres unmarked) [Compound 14, 8-(4-trifluoromethylbenzyl)-2-(4-(trifluoromethyl)benzyl)hexahydro-2H-pyrazino[1,2-a]pyrazin-1(6H)-one]	2580 nM	> 10000 nM	2220 nM	240 nM	–	–	–	–	–	–	–	–	–
O=C1C2CN(Cc3cccc(F)c3)CCN2CCN1Cc1ccc(F)cc1 (centres unmarked) [Compound 5]	140 nM	–	190 nM	250 nM	> 10000 nM	240 nM	400 nM	300 nM	–	–	–	–	–
Cc1ccccc1CN1C(=O)C2=C(CCN(Cc3ccccc3)C2)N2CCN=C12 [ONC201, reference compound]	–	–	–	1720 nM	–	2280 nM	4800 nM	1710 nM	2220 nM	Cytostatic	>10 µM	–	–
O=C1C2CN(CCCCC(F)(F)F)CCN2CCN1Cc1ccc(F)cc1 (centres unmarked) [Compound 7]	2050 nM	–	340 nM	330 nM	> 10000 nM	430 nM	500 nM	500 nM	–	–	–	–	–
N#Cc1cccc(CN2CCN3CCN(Cc4ccc(C(F)(F)F)cc4)C(=O)C3C2)c1 (centres unmarked) [Compound 12]	75 nM	–	< 100 nM	< 100 nM	> 10000 nM	< 100 nM	200 nM	100 nM	–	Cytostatic	>10 µM	< 100 nM	> 10000 nM
O=C1C2CN(Cc3cccc(F)c3)CCN2CCN1Cc1ccc(Cl)cc1 (centres unmarked) [Compound 6]	60 nM	–	150 nM	190 nM	> 10000 nM	190 nM	300 nM	250 nM	–	–	–	–	–
O=C1C2CN(Cc3ccccc3)CCN2CCN1Cc1ccc(F)cc1 (centres unmarked) [Compound 11]	620 nM	–	515 nM	600 nM	> 10000 nM	490 nM	800 nM	410 nM	–	–	–	–	–
O=C1C2=C(CCN(Cc3ccccc3)C2)N2CCN=C2N1Cc1ccc(F)cc1F [ONC206, reference compound]	4560 nM	> 10000 nM	600 nM	300 nM	–	600 nM	800 nM	370 nM	–	Cytostatic	>10 µM	730 nM	–
N#Cc1cccc(CN2CCN3CCN(Cc4ccc(Cl)cc4)C(=O)C3C2)c1 (centres unmarked) [Compound 3]	65 nM	–	< 100 nM	< 100 nM	> 10000 nM	< 100 nM	< 100 nM	< 100 nM	–	Cytostatic	>10 µM	< 100 nM	> 10000 nM
O=C1C2CN(CCCCC(F)(F)F)CCN2CCN1Cc1ccc(C(F)(F)F)cc1 (centres unmarked) [Compound 8]	1650 nM	–	310 nM	350 nM	> 10000 nM	400 nM	2000 nM	–	–	–	–	–	–
O=C1C2CN(Cc3ccccc3)CCN2CCN1Cc1cccc(Cl)c1 (centres unmarked) [Compound 9]	690 nM	–	930 nM	830 nM	> 10000 nM	935 nM	1140 nM	1080 nM	–	–	–	–	–
N#Cc1cccc(CN2CCN3CCN(Cc4ccc(F)cc4)C(=O)C3C2)c1 (centres unmarked) [Compound 1]	150 nM	–	103 nM	195 nM	> 10000 nM	120 nM	220 nM	200 nM	–	–	–	–	–
O=C1C2CN(Cc3cccc(F)c3)CCN2CCN1Cc1cccc(C(F)(F)F)c1 (centres unmarked) [Compound 13, 8-(3-fluorobenzyl)-2-(3-(trifluoromethyl)benzyl)hexahydro-2H-pyrazinof1,2-alpyrazin-1(6H)-one]	40 nM	–	170 nM	165 nM	> 10000 nM	190 nM	300 nM	250 nM	–	Cytostatic	>10 µM	420 nM	> 10000 nM
N#Cc1cccc(CN2CCN3CCN(Cc4cccc(Cl)c4)C(=O)C3C2)c1 (centres unmarked) [Compound 2]	120 nM	–	165 nM	140 nM	> 10000 nM	145 nM	250 nM	250 nM	–	–	–	–	–
O=C1C2CN(Cc3ccccc3)CCN2CCN1Cc1ccc(C(F)(F)F)cc1 (centres unmarked) [Compound 10]	180 nM	–	650 nM	640 nM	> 10000 nM	635 nM	1000 nM	640 nM	–	–	–	–	–
